Measured values taken from patent US20240415845A1, “Compositions of Iboga Alkaloids and Methods of Treatment” (priority 2022, published 2024).
Entries after “also recorded” stand apart in the source; their conditions may differ.

Assays:
Assay type in all cases: in vivo, human
[1] = system: special operations veterans with combat and/or blast exposure; test: Safety monitoring during and after treatment (adverse events, QTc by ECG)
Procedure: With subjects in the fasting state, an intravenous infusion of 1 gram of magnesium sulfate was administered 1-2 hours prior to treatment. […] Medical staff (MD, RN, or EMT) were onsite at a ratio of at least 1 staff per 2 patients throughout treatment for monitoring and management, but no specific coaching or psychological support was provided during treatment.

[2] = system: special operations veterans with combat and/or blast exposure; test: Structural MRI (T1w, FreeSurfer): brain volume and cortical thickness
Procedure: Structural imaging of the brain was also conducted on some of the subjects of Example 1. Gray matter constitutes about 40% of the brain and white matter constitutes about 60% of the brain. Gray matter contains most of the brain's neuronal cell nodes, it is fully developed once a person reaches their 20's and interprets sensor information from various parts of the body. White matter is made up of bundles which connect various gray matter areas, it develops throughout the 20's and peaks in middle age. Typical metrics analyzed in anatomical (T1-weighted, “T1w”) imaging include volume and/or shape of nuclei (e.g. caudate), volume and/or shape of ventricles of the brain, and cortical thickness (mm). These metrics can be used to study normal and abnormal neuroanatomy and are primarily used to quantify gray matter. A tool called FreeSurfer was applied to images for a T1w structural analysis (volume, cortical thickness) to adjust for bias, remove non-brain matter, segments by tissue, parcels the brain into standardized regions, and provides measurements of those regions. FreeSurfer measurements of whole brain volume, volume by tissue (gray, white, CSF), estimated intracranial volume (ICV), subcortical gray matter volume, cortical volume by region were done. […] In particular, analysis was done to determine if there was any loss in gray matter volume or cortical thickness, whether there was a loss in white matter volume or an increase in presence of white matter […]. Results are summarized in Table 3 and shown in FIGS. 17A-17B, and FIGS. 18A-18B.
The fMRI images were also inspected to determine the difference in volume in regional areas of the brain from baseline to one month after treatment. FIG. 18A is a bar graph showing the effect size of a change in volume in 47 brain regions indicated along the x-axis. […] The fMRI images were also inspected for whole brain thickness at baseline and one month after treatment. […] FIG. 18B is a bar graph showing the effect size of a cortical thickness change for the brain regions indicated along the x-axis, from baseline to one month after treatment. […] The right and left parahippocampal gyrus are involved in visuospatial processing, including scene perception, navigation, and emotional contextualization. The left orbitofrontal gyrus is involved in impulse control and reward valuation. The left insular cortex is associated with both the affective-perceptual and cognitive-evaluative forms of empathy, as well as awareness of hunger, pain and fatigue. The left entorhinal cortex is a widespread network hub for memory, navigation, and perception of time.

[3] = system: male veterans with a history of TBI; test: Pseudo-continuous arterial spin labeling (pcASL) MRI of cerebral blood flow; conditions: baseline, first post-treatment scan and one month post-treatment; paired t-test; 18 subjects
Procedure: Arterial spin labeling (ASL) MR was used to measure cerebral blood flow in some of the subjects of the subjects enrolled in the study of Example 1. As described in Example 3, pseudo-continuous ASL (pcASL) was performed on the subject at baseline, about 1 week after treatment, and one-month after treatment. […] A first metric of interest was change in net quantity (mL/100 g tissue/min) of blood entering different regions of the brain. Images of the left posterior orbital gyrus, left anterior insula, left and right cerebral white matter at baseline and 1-week post treatment (images not shown) were analyzed and compared. […] A paired t-test across 3 time points—baseline (pre-treatment), 1 week post-treatment, and 1 month post-treatment—was employed.
Arterial spin labeling (ASL) MRW was used to measure cerebral blood flow.
A first metric of interest was change in net quantity (mL/100 g tissue/min) of blood entering different regions of the brain. Images of the left posterior orbital gyrus, left anterior insula, left and right cerebral white matter at baseline and 1-2 days post treatment (images not shown) were analyzed and compared.
A paired t-test across 3 time points-baseline (pre-treatment), 1-2 days post-treatment, and one month post-treatment-was employed.

[4] = baseline to one month after treatment

With `CCC1CC2CC3c4[nH]c5ccc(OC)cc5c4CCN(C2)C13` (centres unmarked) [ibogaine, Ibogaine] as the compound, how does the “participants with transient cerebellar signs such as mild ataxia and intention tremor” value ([1]; 30 participants) read?
Its value is “All participants”.

And the “unexpected or serious treatment-emergent side effects / adverse events” value ([1]; 30 participants, oral ibogaine with IV magnesium sulfate)?
Its value is “no unexpected or serious treatment-emergent side effects; also recorded: no unexpected or serious adverse events”.

And the “prolongation of QTc” value ([1]; continuous 5-lead ECG for 12-16 hours following administration)?
Its value is “no instances of a concerning prolongation of QTc”.

And the “time to resolution of transient cerebellar signs” value ([1]; human, in vivo, oral)?
Its value is no more than 24 h.

What about the “participants treated for insomnia” value ([1]; while experiencing the oneirogenic effects, 1 participant) of the same compound?
The value was 3%.

What about the “participants treated for hypertension” value ([1]; while experiencing the oneirogenic effects, 2 participants) of the same compound?
The value was 7%.

What about the “participants treated for anxiety” value ([1]; while experiencing the oneirogenic effects, 3 participants) of the same compound?
Its value is 10%.

What about the “participants treated for nausea” value ([1]; while experiencing the oneirogenic effects, 7 participants) of the same compound?
Its value is 23%.

And the “participants treated for headache” value ([1]; while experiencing the oneirogenic effects, 12 participants)?
Its value is 40%.

And the “regional volume change in cerebral white matter (left) and left ventral DC” value [2, 4]?
Its value is “Increases in volume”.

What about the “regional volume change in posterior corpus callosum and left choroid plexus” value [2, 4] of the same compound?
Its value is “Decreases in volume”.

And the “White matter hypointensities (corrected for cerebral white matter), change” value ([2]; baseline vs one month post treatment, 17 subjects, two-tailed p = 0.0789)?
The value was “Two-tailed: no significant differences”.

And the “Subcortical Gray Matter volume, change” value ([2]; baseline vs one month post treatment, 17 subjects, two-tailed p = 0.0949)?
The value was “Two-tailed: no significant differences”.

And the “Total Gray Matter volume, change” value ([2]; baseline vs one month post treatment, 17 subjects, two-tailed p = 0.4755)?
Its value is “Two-tailed: no significant differences”.

What about the “Cortical Gray Matter volume, change” value ([2]; baseline vs one month post treatment, 17 subjects, two-tailed p = 0.4847) of the same compound?
The value was “Two-tailed: no significant differences”.

What about the “damage to the brain by inspection of brain volume and thickness” value ([2]; one month after treatment) of the same compound?
The value was “no apparent damage to the brain”.

What about the “right hemisphere mean cortical thickness, change” value ([2]; one month after treatment vs baseline) of the same compound?
Its value is “no significant difference”.

And the “Left hemisphere mean cortical thickness, change” value ([2]; one month after treatment vs baseline, two-tailed p=0.7146)?
The value was “no significant difference”.

What about the “cortical thickness change in left entorhinal cortex, left-lateral-orbitofrontal pole, parahippocampal gyrus (bilaterally), left insular cortex, right-pars triangularis” value ([2]; one-month after treatment) of the same compound?
The value was “Increases in cortical thickness”.

And the “changes in absolute cerebral blood flow” value [3]?
Its value is “No significant changes”.
